Reference: ChEMBL document CHEMBL1201862, “PubChem BioAssay data set” (2004)
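Method: 48-hour compound exposure of cells in 96-well plates, five concentrations, linear interpolation of endpoints. GI50 = concentration required for 50% inhibition of growth.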 Activity calls are given as the source filed them. Cut-off read from the data, not from the text of the source: active = GI50 up to about 1.1 µM and inactive = higher.

How the values were obtained:
Experiment in all cases: growth of human tumour cells (NCI), 48 h
OVCAR-5 = test system: OVCAR-5
NCI-H23 = test system: NCI-H23
HL-60 = test system: HL-60
MDA-MB-231 = test system: MDA-MB-231
SF-268 = test system: SF-268
CAKI-1 = test system: CAKI-1
SK-MEL-2 = test system: SK-MEL-2
Hs-578T = test system: Hs-578T
NCI-H460 = test system: NCI-H460
SN12C = test system: SN12C
KM12 = test system: KM12
A549 = test system: A549
HOP-62 = test system: HOP-62
HCT-15 = test system: HCT-15
T47D = test system: T47D
UO-31 = test system: UO-31
K562 = test system: K562
UACC-257 = test system: UACC-257
LOX IMVI = test system: LOX IMVI

| SMILES | GI50 (OVCAR-5) | GI50 (NCI-H23) | GI50 (HL-60) | GI50 (MDA-MB-231) | GI50 (SF-268) | GI50 (CAKI-1) | GI50 (SK-MEL-2) | GI50 (Hs-578T) | GI50 (NCI-H460) | GI50 (SN12C) | GI50 (KM12) | GI50 (A549) | GI50 (HOP-62) | GI50 (HCT-15) [µM] | GI50 (T47D) | GI50 (UO-31) | GI50 (K562) | GI50 (UACC-257) | GI50 (LOX IMVI) |
| --- | --- | --- | --- | --- | --- | --- | --- | --- | --- | --- | --- | --- | --- | --- | --- | --- | --- | --- | --- |
| Cc1ccnc2c1C(=O)C1=C(OC(C)(C)CC1O)C2=O (stereo unspecified) | 8.26 µM (inactive) | 1.76 µM (inactive) | 2.41 µM (inactive) | 2.97 µM (inactive) | 1.79 µM (inactive) | 6.01 µM (inactive) | 2.88 µM (inactive) | 2.81 µM (inactive) | 2.9 µM (inactive) | 3.21 µM (inactive) | 3.27 µM (inactive) | 8.77 µM (inactive) | 3.37 µM (inactive) | 2.38 | 4.89 µM (inactive) | 2.2 µM (inactive) | 2.99 µM (inactive) | 1.74 µM (inactive) | 2.56 µM (inactive) |
| O=C(O)C(Cc1ccccc1)NCc1c(O)ccc2c(-c3ccccc3)cc(=O)oc12 (stereo unspecified) | > 100 µM (inactive) | > 100 µM (inactive) | > 100 µM (inactive) | > 100 µM (inactive) | > 100 µM (inactive) | > 100 µM (inactive) | > 100 µM (inactive) | > 100 µM (inactive) | > 100 µM (inactive) | > 100 µM (inactive) | > 100 µM (inactive) | > 100 µM (inactive) | > 100 µM (inactive) | > 100 | > 100 µM (inactive) | > 100 µM (inactive) | > 100 µM (inactive) | > 100 µM (inactive) | > 100 µM (inactive) |
| C=CC(C)(C)NC(C(=O)N1CCC[C@H]1c1nc(-c2nc(C(=O)OCC=C(C)C)c(C)o2)c(C)o1)C(C)C (stereo partly specified) | > 76 µM (inactive) | > 100 µM (inactive) | 17.1 µM (inactive) | 47 µM (inactive) | > 100 µM (inactive) | > 55.2 µM (inactive) | > 45.3 µM (inactive) | 81.5 µM (inactive) | 31.9 µM (inactive) | > 47.8 µM (inactive) | > 54.2 µM (inactive) | > 58.9 µM (inactive) | > 100 µM (inactive) | > 52.1 | 74.8 µM (inactive) | 21.8 µM (inactive) | > 60.7 µM (inactive) | > 58.7 µM (inactive) | > 49.2 µM (inactive) |
| CCOC(=O)/C=C(/C(=O)OCC)n1cc(C)c(=O)n(/C(=C/C(=O)OCC)C(=O)OCC)c1=O | 6.62 µM (inactive) | 4.03 µM (inactive) | 0.255 µM (active) | 3.4 µM (inactive) | 8.45 µM (inactive) | 0.887 µM (active) | 14.7 µM (inactive) | 6.4 µM (inactive) | 16.1 µM (inactive) | 2.98 µM (inactive) | 13.9 µM (inactive) | 15.9 µM (inactive) | 24.8 µM (inactive) | 1.56 | 2.64 µM (inactive) | 5.31 µM (inactive) | 1.58 µM (inactive) | 4.9 µM (inactive) | 1.74 µM (inactive) |
| Oc1ccccc1/C=N/c1ccc(-c2nc3ccccc3[nH]2)cc1 | > 100 µM (inactive) | 50.5 µM (inactive) | 25.2 µM (inactive) | 40.5 µM (inactive) | 43 µM (inactive) | > 100 µM (inactive) | > 100 µM (inactive) | > 100 µM (inactive) | 54.8 µM (inactive) | 79.1 µM (inactive) | 43.3 µM (inactive) | > 100 µM (inactive) | > 100 µM (inactive) | 29.6 | 10.4 µM (inactive) | 63.1 µM (inactive) | 43.2 µM (inactive) | 47.8 µM (inactive) | > 100 µM (inactive) |
| COc1ccc(S(=O)(=O)Nc2ccc(-c3csc(N4C(=O)/C(=C/c5cccs5)N=C4c4ccccc4)n3)cc2)cc1Cl | > 100 µM (inactive) | 21.5 µM (inactive) | 24.5 µM (inactive) | 32.4 µM (inactive) | 30.5 µM (inactive) | > 100 µM (inactive) | 40.4 µM (inactive) | 35.2 µM (inactive) | 41.1 µM (inactive) | 66.2 µM (inactive) | 49.1 µM (inactive) | 38.9 µM (inactive) | 4.08 µM (inactive) | 24.9 | 19.9 µM (inactive) | 28.1 µM (inactive) | 38.7 µM (inactive) | 46.3 µM (inactive) | 37 µM (inactive) |
| O=C1Nc2ccc(Br)cc2/C1=N/Nc1ccccc1[N+](=O)[O-] | 12.7 µM (inactive) | 3.56 µM (inactive) | 33.2 µM (inactive) | 1.92 µM (inactive) | 20.2 µM (inactive) | 14.2 µM (inactive) | 25.2 µM (inactive) | 16.1 µM (inactive) | 9.73 µM (inactive) | 18.8 µM (inactive) | 8.2 µM (inactive) | 9.29 µM (inactive) | 11.4 µM (inactive) | 20.5 | 29.9 µM (inactive) | 16.9 µM (inactive) | 16.6 µM (inactive) | 13.3 µM (inactive) | 15.2 µM (inactive) |
| CC(=O)c1c2c(cc3c1CC1(C3)Cc3ccc4c(c3C1=O)CCC4)CCC2 (stereo unspecified) | > 100 µM (inactive) | 34.9 µM (inactive) | 3.58 µM (inactive) | 24.7 µM (inactive) | > 100 µM (inactive) | 14.9 µM (inactive) | 34.8 µM (inactive) | 13.5 µM (inactive) | 38.6 µM (inactive) | 48.2 µM (inactive) | 17.2 µM (inactive) | 21.5 µM (inactive) | > 100 µM (inactive) | 16.1 | 9.73 µM (inactive) | 55.5 µM (inactive) | 6.58 µM (inactive) | 2.75 µM (inactive) | 14.8 µM (inactive) |
| CC(CN1CC(=O)NC(=O)C1)N1CC(=O)NC(=O)C1 (stereo unspecified) [RAZOXANE] | 343 µM (inactive) | 213 µM (inactive) | 53.1 µM (inactive) | 171 µM (inactive) | 299 µM (inactive) | 109 µM (inactive) | 399 µM (inactive) | 72.3 µM (inactive) | 11.1 µM (inactive) | 112 µM (inactive) | 398 µM (inactive) | 32.9 µM (inactive) | 54.7 µM (inactive) | 100 | 231 µM (inactive) | 349 µM (inactive) | 188 µM (inactive) | 535 µM (inactive) | 212 µM (inactive) |
| CCOC(=O)C1=C(C)N(Cc2ccc(Cl)cc2Cl)C2(O)C(OC)CC(=O)C3C(=O)N(c4ccccc4)C(=O)C132 (stereo unspecified) | 2.41 µM (inactive) | 3.46 µM (inactive) | 2.24 µM (inactive) | 1.38 µM (inactive) | 2.26 µM (inactive) | 6.71 µM (inactive) | 1.28 µM (inactive) | 9.06 µM (inactive) | 2.92 µM (inactive) | 2.26 µM (inactive) | 2.63 µM (inactive) | 2.34 µM (inactive) | 0.995 µM (active) | 1.36 | 0.244 µM (active) | 4.54 µM (inactive) | 1.11 µM (active) | 3.52 µM (inactive) | 1.05 µM (active) |
| O=C(NC(Cl)(C(F)(F)F)C(F)(F)F)c1ccc(F)cc1 | > 100 µM (inactive) | > 100 µM (inactive) | > 100 µM (inactive) | > 100 µM (inactive) | > 100 µM (inactive) | > 100 µM (inactive) | > 100 µM (inactive) | > 100 µM (inactive) | > 100 µM (inactive) | > 100 µM (inactive) | > 100 µM (inactive) | > 100 µM (inactive) | > 100 µM (inactive) | > 100 | > 100 µM (inactive) | > 100 µM (inactive) | > 100 µM (inactive) | > 100 µM (inactive) | > 100 µM (inactive) |
| CC[C@@]1(O)C(=O)OCc2c1cc1n(c2=O)Cc2c-1nc1ccccc1c2/C=N/NC(=O)C[N+](C)(C)C | 30.4 µM (inactive) | 0.495 µM (active) | 0.668 µM (active) | > 100 µM (inactive) | 0.45 µM (active) | 0.578 µM (active) | > 83.6 µM (inactive) | > 100 µM (inactive) | 0.15 µM (active) | 0.0857 µM (active) | > 53.8 µM (inactive) | 1.22 µM (inactive) | 0.359 µM (active) | 14 | 0.239 µM (active) | 0.944 µM (active) | 2.86 µM (inactive) | 12.7 µM (inactive) | 0.824 µM (active) |
| CC1CC[C@@]2(OC1)OC1C[C@H]3[C@@H]4CC=C5C[C@@H](OC6OC(CO)C(OC7OC(CO)C(O)C(O)C7O)C(O)C6OC6OC(C)C(O)C(O)C6O)CC[C@]5(C)[C@H]4CC[C@]3(C)C1[C@@H]2C (stereo partly specified) | 1.42 µM (inactive) | 0.783 µM (active) | 0.753 µM (active) | 0.435 µM (active) | 0.593 µM (active) | 0.76 µM (active) | 0.759 µM (active) | 0.714 µM (active) | 0.685 µM (active) | 0.635 µM (active) | 0.547 µM (active) | 0.746 µM (active) | 0.593 µM (active) | 3.52 | 0.513 µM (active) | 0.48 µM (active) | 0.466 µM (active) | 0.526 µM (active) | 0.462 µM (active) |
| N#C[C@H](C(=O)c1ccccc1F)c1nc2ccccc2s1 | 31 µM (inactive) | 46.3 µM (inactive) | 31.3 µM (inactive) | 35.8 µM (inactive) | 26.9 µM (inactive) | 32.5 µM (inactive) | 16.6 µM (inactive) | 15.1 µM (inactive) | 28.9 µM (inactive) | 31.6 µM (inactive) | 11 µM (inactive) | 29 µM (inactive) | 20.5 µM (inactive) | 54.5 | 34.8 µM (inactive) | 46.8 µM (inactive) | 27.3 µM (inactive) | 66.1 µM (inactive) | 33 µM (inactive) |
